# Data: ChEMBL document CHEMBL1156578, “Countercurrent separation of natural products” (J Nat Prod, 2008)
# Assays:
# [1] = Octanol-water partition coefficient, log KOW in heptane-ethyl alcohol-water (4:1:4); type: physicochemical
# [2] = Partition coefficient, log K in n-butyl alcohol-ethyl acetate-water by shake flask method (1:4:5); type: physicochemical
# [3] = Partition coefficient, log K in n-hexane-ethyl acetate-ethyl alcohol-water (5:5:3:7); type: physicochemical
# [4] = Partition coefficient, log K in n-hexane-ethyl acetate-ethyl alcohol-water (3:7:3:7); type: physicochemical
# [5] = Partition coefficient, log K in n-hexane-ethyl acetate-ethyl alcohol-water (3:7:1:9); type: physicochemical
# [6] = Partition coefficient, log K in n-hexane-ethyl acetate-ethyl alcohol-water (1:9:1:9); type: physicochemical
# [7] = Partition coefficient, K in n-butyl alcohol-ethyl acetate-water by shake flask method (2:3:5)
Structure (SMILES),log K [1],log K [2],log K [3],log K [4],log K [5],log K [6],K [7]
CCNC(=O)c1ccccc1,1.51,–,–,–,–,–,–
"COc1ccc(/C=C/C(=O)O)cc1OC [O,O'-DIMETHYLCAFFEIC ACID]",1.56,–,–,–,–,–,–
COc1ccc([C@@H]2OC[C@H]3[C@@H]2CO[C@@H]3c2ccc(O[C@@H]3O[C@H](CO)[C@@H](O)[C@H](O)[C@H]3O)c(OC)c2)cc1OC [PHILLYRIN],–,3.87,0.099,0.246,0.312,0.799,6.25
